One data set has as its system LNCaP cells. Nature of the data set: Cellular uptake and distribution (surface-bound, internalized) in LNCaP cells. The settings on record: 1 h, 37°C, specific uptake. The class given is cell-based. The method, then: (§1) The lipophilicity of [^61Cu]Cu-DOTAGA-PSMA-I&T and [^61Cu]Cu-NODAGA-PSMA-I&T was assessed by determining the distribution coefficient in a 1:1 mixture of 1-octanol–to–phosphate-buffered saline at pH 7.4, in comparison with all reference radiotracers. Inhibitory concentration of 50% (IC50) was assessed by competition binding on lymph node carcinoma of the prostate (LNCaP) using ((S)-1-carboxy-5-(4-(-^125I-iodo-benzamido)pentyl)carbamoyl)-L-glutamic acid as the reference radioligand. Cellular uptake and distribution were assessed in LNCaP cells at 5, 15, 30, 60, and 120 min after exposure to the radioligand at 37°C, either alone or in the presence of 10 µM 2-(phosphonomethyl)pentanedioic acid to distinguish between specific and nonspecific uptake.
(§2) FIGURE 1. In vitro assessment in LNCaP cells after 1 h at 37°C. (A) Competition binding activity curves of ^natCu-DOTAGA-PSMA-I&T, ^natCu-NODAGA-PSMA-I&T, and ^natGa-PSMA-11 on LNCaP cells after 1 h of incubation on ice, using ((S)-1-carboxy-5-(4-(-^125I-iodo-benzamido)pentyl)carbamoyl)-L-glutamic acid ([^125I-BA]KuE) at concentration of 0.2 nM as reference radioligand. (B) Cellular uptake (surface-bound + internalized). Cell surface–bound and internalized fractions are indicated. Results represent mean ± SD of specific (total − nonspecific) uptake from minimum of 2 separate experiments, each in triplicate.

Data set [1] in a line: Lipophilicity: distribution coefficient in 1:1 1-octanol/phosphate-buffered saline at pH 7.4. It counts as physicochemical. The procedure: as §1
The next data set deals with LNCaP xenografts. Nature of the data set: Biodistribution in LNCaP xenografts. The class given is in vivo, mice. The procedure:
All animal experiments were conducted in accordance with Swiss animal welfare laws and regulations under license number 30515 granted by the Veterinary Office, Department of Health, Canton Basel-Stadt, Switzerland. Male athymic nude-Foxn1^nu/Foxn1^+ mice (Envigo), 4–6 wk old, were inoculated subcutaneously on the shoulder with 10^7 LNCaP cells, freshly suspended in a 1:1 ratio of sterile minimum essential medium with basal medium Eagle and Matrigel. The tumors were allowed to grow to a volume of approximately 200 mm^3.
The biodistribution of [^61Cu]Cu-DOTAGA-PSMA-I&T and [^61Cu]Cu-NODAGA-PSMA-I&T (100 µL/200 pmol/2–3 MBq) was compared with that of [^68Ga]Ga-DOTAGA-PSMA-I&T, [^68Ga]Ga-NODAGA-PSMA-I&T, and [^68Ga]Ga-PSMA-11 (100 µL/200 pmol/3–5 MBq), as well as [^18F]PSMA-1007 (100 µL/70 pmol/15 MBq). This comparison was conducted at 1 h after injection for all radiotracers and at 4 h after injection for the ^61Cu-labeled tracers and [^18F]PSMA-1007. The specificity of the ^61Cu-labeled tracers was assessed at 1 h after injection by blocking studies with 2-(phosphonomethyl)pentanedioic acid (100 µL/1.3 µmol) being injected 3–5 min before the injection of the radiotracer.

For a further data set, the target named is T1, PSMA (Homo sapiens, UniProt Q04609).
T1 construct: endogenous in cells; host or cells: LNCaP cells
T1 sequence (Q04609 whole entry): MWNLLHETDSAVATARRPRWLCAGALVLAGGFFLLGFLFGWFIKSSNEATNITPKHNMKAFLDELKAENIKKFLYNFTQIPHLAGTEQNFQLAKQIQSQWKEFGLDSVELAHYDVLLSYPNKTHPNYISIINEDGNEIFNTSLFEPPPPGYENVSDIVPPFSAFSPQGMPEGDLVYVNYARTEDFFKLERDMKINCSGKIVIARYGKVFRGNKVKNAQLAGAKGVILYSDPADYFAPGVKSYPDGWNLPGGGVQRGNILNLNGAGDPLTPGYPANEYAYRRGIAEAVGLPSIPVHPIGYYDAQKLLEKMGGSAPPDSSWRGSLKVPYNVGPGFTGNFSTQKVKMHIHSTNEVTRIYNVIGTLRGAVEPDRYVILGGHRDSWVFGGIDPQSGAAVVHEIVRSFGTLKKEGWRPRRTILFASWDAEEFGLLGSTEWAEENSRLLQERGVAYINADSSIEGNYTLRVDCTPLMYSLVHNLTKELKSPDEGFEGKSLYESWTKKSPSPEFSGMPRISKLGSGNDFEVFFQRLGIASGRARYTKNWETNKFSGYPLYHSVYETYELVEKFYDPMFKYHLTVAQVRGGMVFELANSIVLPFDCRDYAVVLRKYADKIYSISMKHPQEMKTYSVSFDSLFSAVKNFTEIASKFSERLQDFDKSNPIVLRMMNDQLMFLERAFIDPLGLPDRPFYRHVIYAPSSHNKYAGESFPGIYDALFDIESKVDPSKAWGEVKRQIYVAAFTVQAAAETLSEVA
The data set can be described thus: Competition binding on LNCaP cells using [^125I-BA]KuE as reference radioligand. The settings on record: [^125I-BA]KuE 0.2 nM, 1 h on ice, determined with natCu/natGa complexes. The method, then:
as §1, §2

Take `O=C([O-])CN1CCN(CC(=O)[O-])CCN(C(CCC(=O)N[C@H](Cc2ccc(O)c(I)c2)C(=O)N[C@H](Cc2ccccc2)C(=O)N[C@H](CCCCNC(=O)CCCCCCC(=O)NCCCC[C@H](NC(=O)N[C@@H](CCC(=O)O)C(=O)O)C(=O)O)C(=O)O)C(=O)[O-])CC1.[68Ga+3]` (some centres unmarked) [[^68Ga]Ga-NODAGA-PSMA-I&T]: the “Cellular uptake (surface-bound + internalized)” value in the data set on LNCaP cells is on record as 18.1% ± 2.6%.
As for `O=C([O-])CN1CCN(CC(=O)[O-])CCN(C(CCC(=O)N[C@H](Cc2ccc(O)c(I)c2)C(=O)N[C@H](Cc2ccccc2)C(=O)N[C@H](CCCCNC(=O)CCCCCCC(=O)NCCCC[C@H](NC(=O)N[C@@H](CCC(=O)O)C(=O)O)C(=O)O)C(=O)O)C(=O)O)CCN(CC(=O)[O-])CC1.[68Ga+3]` (some centres unmarked) [[^68Ga]Ga-DOTAGA-PSMA-I&T, reference compound], the “Cellular uptake (surface-bound + internalized)” value in the data set with LNCaP cells is 20.6% ± 2.3%.
`O=C(O)CC[C@H](NC(=O)N[C@@H](CCCCNC(=O)[C@H](Cc1ccc2ccccc2c1)NC(=O)c1ccc(CNC(=O)[C@H](CCC(=O)O)NC(=O)[C@H](CCC(=O)O)NC(=O)c2ccc([18F])nc2)cc1)C(=O)O)C(=O)O` [[^18F]PSMA-1007, reference compound] displayed a logDpH7.4 in data set [1] of −3.02 ± 0.11. In the data set with LNCaP xenografts (1 h after injection), the “Biodistribution, Adrenals” value is 7.18 ± 2.20 %IA/g; the “Biodistribution, Blood” value is 0.41 ± 0.11 %IA/g; the “Biodistribution, Femur” value is 0.94 ± 0.13 %IA/g; the “Biodistribution, Heart” value is recorded as 1.25 ± 0.29 %IA/g. In addition, in the data set with LNCaP xenografts (1 h after injection), the “Biodistribution, Intestine” value is 1.04 ± 0.33 %IA/g; the “Biodistribution, Kidneys” value is on record as 100 ± 17 %IA/g; the “Biodistribution, Liver” value was found to be 0.93 ± 0.26 %IA/g; the “Biodistribution, Lung” value is reported as 2.08 ± 0.24 %IA/g. Also, in the data set with LNCaP xenografts (1 h after injection), the “Biodistribution, Muscles” value is 0.53 ± 0.09 %IA/g; the “Biodistribution, Pancreas” value is 1.32 ± 0.58 %IA/g; the “Biodistribution, Salivary glands” value is 2.54 ± 0.72 %IA/g; the “Biodistribution, Spleen” value is listed as 11.0 ± 1.1 %IA/g. Moreover, in the data set with LNCaP xenografts (1 h after injection), the “Biodistribution, Stomach” value worked out at 0.75 ± 0.15 %IA/g; the “Biodistribution, Tumor (tumor uptake)” value came out at 9.70 ± 2.57 %IA/g; the Tumor-to-Adrenals ratio worked out at 1.45 ± 0.55; the Tumor-to-Blood ratio was 25.8 ± 11.5. Moreover, in the data set on LNCaP xenografts (1 h after injection), the Tumor-to-Intestine ratio was found to be 10.3 ± 4.8, the Tumor-to-Kidneys ratio is on record as 0.10 ± 0.03, the Tumor-to-Liver ratio turned out to be 11.3 ± 4.5 and the Tumor-to-Muscles ratio is 19.2 ± 6.5. Also, in the data set on LNCaP xenografts (1 h after injection), the Tumor-to-Salivary glands ratio is on record as 4.12 ± 1.60 and the Tumor-to-Spleen ratio is on record as 0.89 ± 0.20. Also, in the data set with LNCaP xenografts (4 h after injection), the “Biodistribution, Adrenals” value came to 8.03 ± 2.66 %IA/g; the “Biodistribution, Blood” value is recorded as 0.17 ± 0.04 %IA/g; the “Biodistribution, Femur” value came out at 0.62 ± 0.11 %IA/g; the “Biodistribution, Heart” value is 0.53 ± 0.23 %IA/g. Besides, in the data set on LNCaP xenografts (4 h after injection), the “Biodistribution, Intestine” value amounted to 0.43 ± 0.22 %IA/g; the “Biodistribution, Kidneys” value worked out at 132 ± 9 %IA/g; the “Biodistribution, Liver” value turned out to be 0.32 ± 0.16 %IA/g; the “Biodistribution, Lung” value was 1.61 ± 0.58 %IA/g. In the data set with LNCaP xenografts (4 h after injection), the “Biodistribution, Muscles” value worked out at 0.27 ± 0.11 %IA/g; the “Biodistribution, Pancreas” value was determined as 0.80 ± 0.32 %IA/g; the “Biodistribution, Salivary glands” value is 1.62 ± 0.43 %IA/g; the “Biodistribution, Spleen” value is given as 8.33 ± 2.11 %IA/g. Besides, in the data set with LNCaP xenografts (4 h after injection), the “Biodistribution, Stomach” value was found to be 0.47 ± 0.16 %IA/g; the “Biodistribution, Tumor (tumor uptake)” value is 6.28 ± 2.19 %IA/g; the Tumor-to-Adrenals ratio was 0.78 ± 0.11; the Tumor-to-Blood ratio is 42.7 ± 16.4. In addition, in the data set with LNCaP xenografts (4 h after injection), the Tumor-to-Intestine ratio amounted to 12.4 ± 4.4, the Tumor-to-Kidneys ratio is 0.04 ± 0.01, the Tumor-to-Liver ratio is on record as 18.4 ± 8.5 and the Tumor-to-Muscles ratio was 20.1 ± 2.5. In addition, in the data set with LNCaP xenografts (4 h after injection), the Tumor-to-Salivary glands ratio was found to be 3.63 ± 0.40 and the Tumor-to-Spleen ratio turned out to be 0.71 ± 0.12.
As for `O=C([O-])CN1CCN(CC(=O)[O-])CCN(C(CCC(=O)N[C@H](Cc2ccc(O)c(I)c2)C(=O)N[C@H](Cc2ccccc2)C(=O)N[C@H](CCCCNC(=O)CCCCCCC(=O)NCCCC[C@H](NC(=O)N[C@@H](CCC(=O)O)C(=O)O)C(=O)O)C(=O)O)C(=O)O)CC1.[Cu+2]` (some centres unmarked) [^natCu-NODAGA-PSMA-I&T], the IC50 (usually the concentration that gives 50% inhibition) at PSMA was 9.3 ± 1.8 nM.
The same measure, in the same setting: the same measure for `O=C([O-])CN1CCN(CC(=O)O)CCN(CC(=O)[O-])CCN(C(CCC(=O)N[C@H](Cc2ccc(O)c(I)c2)C(=O)N[C@H](Cc2ccccc2)C(=O)N[C@H](CCCCNC(=O)CCCCCCC(=O)NCCCC[C@H](NC(=O)N[C@@H](CCC(=O)O)C(=O)O)C(=O)O)C(=O)O)C(=O)O)CC1.[Cu+2]` (some centres unmarked) [^natCu-DOTAGA-PSMA-I&T]: 11.2 ± 2.3 nM.
On to `O=C([O-])CN(CCN(CC(=O)[O-])Cc1cc(CCC(=O)NCCCCCC(=O)NCCCC[C@H](NC(=O)N[C@@H](CCC(=O)O)C(=O)O)C(=O)O)ccc1O)Cc1cc(CCC(=O)O)ccc1[O-].[Ga+3]` [^natGa-PSMA-11, reference compound], for which, on PSMA, the 50% inhibitory concentration (IC50) amounted to 2.4 ± 0.4 nM.
Take `O=C([O-])CN(CCN(CC(=O)[O-])Cc1cc(CCC(=O)NCCCCCC(=O)NCCCC[C@H](NC(=O)N[C@@H](CCC(=O)O)C(=O)O)C(=O)O)ccc1[O-])Cc1cc(CCC(=O)O)ccc1[O-].[68Ga+3].[OH3+]` [[^68Ga]Ga-PSMA-11, reference compound]: the logDpH7.4 in data set [1] was −3.89 ± 0.19. Besides, the “Cellular uptake (surface-bound + internalized)” value in the data set with LNCaP cells was 25.8% ± 0.5%. In the data set on LNCaP xenografts (1 h after injection), the “Biodistribution, Adrenals” value amounted to 19.2 ± 5.3 %IA/g; the “Biodistribution, Blood” value came to 0.25 ± 0.07 %IA/g; the “Biodistribution, Femur” value was found to be 3.69 ± 1.86 %IA/g; the “Biodistribution, Heart” value is 0.32 ± 0.10 %IA/g. Further, in the data set with LNCaP xenografts (1 h after injection), the “Biodistribution, Intestine” value is reported as 1.52 ± 0.60 %IA/g; the “Biodistribution, Kidneys” value amounted to 159 ± 31 %IA/g; the “Biodistribution, Liver” value amounted to 0.54 ± 0.27 %IA/g; the “Biodistribution, Lung” value is reported as 1.43 ± 0.43 %IA/g. Moreover, in the data set with LNCaP xenografts (1 h after injection), the “Biodistribution, Muscles” value turned out to be 0.90 ± 0.36 %IA/g; the “Biodistribution, Pancreas” value was found to be 0.70 ± 0.12 %IA/g; the “Biodistribution, Salivary glands” value amounted to 1.56 ± 0.31 %IA/g; the “Biodistribution, Spleen” value is 6.38 ± 1.37 %IA/g. In the data set with LNCaP xenografts (1 h after injection), the “Biodistribution, Stomach” value stood at 0.69 ± 0.11 %IA/g; the “Biodistribution, Tumor (tumor uptake)” value was 10.2 ± 1.5 %IA/g; the Tumor-to-Adrenals ratio was found to be 0.58 ± 0.26; the Tumor-to-Blood ratio is 45.3 ± 19.7. For the same compound, in the data set on LNCaP xenografts (1 h after injection), the Tumor-to-Intestine ratio is reported as 8.66 ± 6.90, the Tumor-to-Kidneys ratio was determined as 0.07 ± 0.02, the Tumor-to-Liver ratio was 23.5 ± 12.5 and the Tumor-to-Muscles ratio worked out at 13.6 ± 8.3. For the same compound, in the data set on LNCaP xenografts (1 h after injection), the Tumor-to-Salivary glands ratio was 6.72 ± 1.51 and the Tumor-to-Spleen ratio was determined as 1.69 ± 0.58.

These data come from publication PMC11372264, “^61Cu-PSMA–Targeted PET for Prostate Cancer: From Radiotracer Development to First-in-Human Imaging” (Journal of Nuclear Medicine, 2024).
